Assay results as given in paper PMC9424684, “Z1456467176 alleviates gouty arthritis by allosterically modulating P2X7R to inhibit NLRP3 inflammasome activation” (Frontiers in Pharmacology, 2022).
Structures can show the parent of a compound that is named as a salt.

Target: T1, hP2X7R (purinergic receptor P2X7, P2X7R) (Homo sapiens, UniProt Q99572)
T1 construct: gene P2RX7; homotrimer
T1 sequence (Q99572 1-595): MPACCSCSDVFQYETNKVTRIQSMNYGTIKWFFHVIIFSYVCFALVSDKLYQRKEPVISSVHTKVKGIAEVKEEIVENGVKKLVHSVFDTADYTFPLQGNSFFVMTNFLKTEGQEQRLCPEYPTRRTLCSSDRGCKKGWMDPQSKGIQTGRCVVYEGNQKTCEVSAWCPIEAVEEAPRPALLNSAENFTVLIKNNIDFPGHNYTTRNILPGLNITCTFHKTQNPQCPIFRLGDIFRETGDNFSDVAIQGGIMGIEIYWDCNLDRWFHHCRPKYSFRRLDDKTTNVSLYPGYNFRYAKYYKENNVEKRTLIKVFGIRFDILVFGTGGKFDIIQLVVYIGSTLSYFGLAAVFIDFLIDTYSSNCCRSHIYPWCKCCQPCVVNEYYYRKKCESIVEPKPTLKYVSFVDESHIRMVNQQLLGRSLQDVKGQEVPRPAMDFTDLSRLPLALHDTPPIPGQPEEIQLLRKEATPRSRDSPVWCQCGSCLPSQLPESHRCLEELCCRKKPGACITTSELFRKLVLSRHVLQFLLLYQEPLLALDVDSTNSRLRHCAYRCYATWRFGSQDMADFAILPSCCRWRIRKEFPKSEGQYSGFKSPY
Assay: ethidium bromide uptake (pore formation), flow cytometry, HEK-293T cells
Assay type: cell-based
Conditions: read-out: EB uptake IC50

Structure (SMILES): CC(Cc1cccc(C(F)(F)F)c1)C(=O)Nc1cccc(S(=O)(=O)NCCN)c1 (stereo not shown) [Z1456467176, N-{3-[(2-aminoethyl)sulfamoyl]phenyl}-2-methyl-3-[3-(trifluoromethyl)phenyl] propanamide hydrochloride]
- IC50: 3.42 µM
